We go through 4 molecules from US12642862B2, “Anti-CD79B antibody-drug conjugate, and preparation method therefor and pharmaceutical use thereof” (TUOJIE BIOTECH (SHANGHAI) CO., LTD., priority 2020, dated 2026).

Like-named read-outs stand apart in the source and are kept apart here.

Assay [1] has as its system A549. Description: Test Example 1 in vitro cytotoxic activity (CTG), A549. In kind it is cell-based. The settings on record: for IC50: Homo sapiens. The method, then: (§1) In this experiment, the ATP content was determined using CTG to reflect the survival condition of the tumor cells. […] The killing effect of the toxin molecule was then assayed according to this condition.
(§2) 1) Cell plating: each of A549, SKBR3 and MDA-MB-468 was digested with pancreatin, resuspended in a culture medium and counted, and 6.33×10^5 cells were added to the medium to make a final volume of 38 mL. 180 μL of the culture medium was plated in a 96-well plate (3903) to obtain a cell density of 3 K/well, and the cells were cultured at 37° C. for 24 h.
(§3) 2 mM solution (10-fold dilution of stock solution in DMSO) was prepared in column 1 of the plate 1, then 10-fold gradient dilution in DMSO was performed in columns 2 to 10. The wells in column 11 were filled with DMSO. 95 μL of corresponding culture medium was added to each well of columns 2 to 11 of the plate 2, and 5 μL of solution was pipetted from columns 2 to 11 of the plate 1 and added to the plate 2. After the solution was mixed well, 20 μL of solution was pipetted and added to the plated cells. Each sample was run in duplicate. The cells were continuously cultured for 5 days.
(§4) 3) CTG assay: the plate was taken out and allowed to equilibrate to room temperature. 90 μL of CTG was added to each well and reacted at room temperature for 10 min away from the light. The luminescence value was read using a microplate reader and IC50 was calculated.

Assay [2] concerns SKBR3. The assay can be described thus: Test Example 1 in vitro cytotoxic activity (CTG), SKBR3. In kind it is cell-based. The following applies: for IC50: Homo sapiens, SK-BR-3, 120 h. As for the experimental part:
as §1, §2, §3, §4

The test system of assay [3] is MDA-MB-468. The assay can be described thus: Test Example 1 in vitro cytotoxic activity (CTG), MDA-MB-468. The following applies: for IC50: Homo sapiens. In kind it is cell-based. The method, then:
as §1, §2, §3, §4

Assay [4] has as its target T1, human CD79B (Homo sapiens, UniProt P40259).
T1 sequence (P40259 29-159 limits assumed): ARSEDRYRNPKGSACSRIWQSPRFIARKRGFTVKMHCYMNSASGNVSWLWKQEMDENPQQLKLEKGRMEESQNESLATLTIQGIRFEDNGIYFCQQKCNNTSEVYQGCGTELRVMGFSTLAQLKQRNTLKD
Description: ELISA of anti-human CD79B hybridoma positive clones. The following applies: hybridoma cell supernatant, read at 450 nm. In kind it is binding. On the set-up: the extracellular region (ECD) of human CD79B comprises 159 amino acids (Met1-Asp159); made in house; host or cells: 293F cells. The method, then: (§5) 3) ELISA screening A 96-well plate was coated with 1 μg/mL antigen at 50 μL/well and incubated in a refrigerator at 4° C. overnight. The next day, the coated antigen plate was washed once (washing solution: 1×PBST). After washing, the plate was blocked with 1% BSA blocking solution prepared in 1×PBST at 37° C. for 1 h. After washing the plate 3 times with 1×PBST, 50 μL of the test cell supernatant was added, and the plate was incubated in an incubator at 37° C. for 1 h. After washing the plate 3 times with 1×PBST, 100 μL of goat anti-mouse secondary antibody diluted in a 1:5000 ratio was added, and the plate was incubated in an incubator at 37° C. for 0.5 h. After washing the plate, TMB color development solutions A and B were mixed in a 1:1 ratio for color development. 15 min later, the color development reaction was stopped with 1 N hydrochloric acid. […] value was read at 450 nm on a Spectra Max M5 microplate reader.
(§6) 5) Identification of hybridoma positive clones A plurality of specific antibodies against human CD79B antigen were obtained; and 17 strains of hybridomas having strongest binding force to ELISA and FACS in assays were taken for production and purification of antibodies. Specific antibodies against monkey CD79B antigen were also obtained; and 4 strains of hybridomas having strongest binding force to ELISA and FACS in assays were taken for production and purification of antibodies. Assay results of anti-monkey CD79B hybridoma positive clone cells by FACS are shown in Table 4. mIgG was used as negative control in the both assays.

The target in assay [5] is T2, CD79B protein on the surface of DoHH2 cells (Homo sapiens, UniProt P40259).
T2 construct: endogenous in cells; host or cells: DoHH2 (DOHH-2) cells
T2 sequence (P40259 29-229): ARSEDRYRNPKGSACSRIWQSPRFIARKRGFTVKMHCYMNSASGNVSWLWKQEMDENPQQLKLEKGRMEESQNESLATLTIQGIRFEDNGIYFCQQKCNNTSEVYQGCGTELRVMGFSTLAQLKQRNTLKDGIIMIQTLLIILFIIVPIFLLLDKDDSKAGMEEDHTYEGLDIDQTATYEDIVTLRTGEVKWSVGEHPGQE
T2 sequence (P11912 33-226 partner): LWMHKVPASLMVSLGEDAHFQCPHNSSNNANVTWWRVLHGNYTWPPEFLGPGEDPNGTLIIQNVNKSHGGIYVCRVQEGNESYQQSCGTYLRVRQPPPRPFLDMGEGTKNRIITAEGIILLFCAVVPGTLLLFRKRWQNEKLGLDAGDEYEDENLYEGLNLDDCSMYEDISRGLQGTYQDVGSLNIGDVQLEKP
Description: FACS of purified anti-human CD79B mouse monoclonal antibodies on DoHH2 cells. In kind it is binding. The settings on record: for FACS binding force: antibodies diluted 1:10 from 100 nM, FIGS. 9A, 9B; for FACS binding force compared with SN8: positive control antibody SN8. The method, then: 3) Assay on anti-human CD79B mouse monoclonal antibodies by FACS The cell suspension of DoHH2 cells was centrifuged, resuspended in PBS containing 0.1% BSA, and counted. 100 μL of antibody diluted in a 1:10 ratio from 100 nM was added, and the cells were incubated at room temperature for 1 h and washed three times. Then Anti-Mouse IgG (Fc specific)-FITC secondary antibody was added, and the cells were incubated at room temperature for 30 min away from the light, washed three times, gently resuspended in PBS containing 0.1% BSA, and loaded on the machine for assay. […] The specific data are shown in FIGS. 9A and 9B, in which hIgG1 is a negative control antibody and SN8 is a positive control antibody. SN8 is an antibody (reference sequence source: US20170362318A) used in the antibody-drug conjugate polatuzumab vedotin developed by Roche pharmaceutical. Polatuzumab vedotin has been approved by the FDA for marketing.

In assay [6] the target is T1, human CD79B. Description: ELISA of purified anti-human CD79B mouse monoclonal antibodies. It counts as binding. Set-up: the extracellular region (ECD) of human CD79B comprises 159 amino acids (Met1-Asp159); made in house; host or cells: 293F cells. The settings on record: purified antibodies diluted 1:10 from 100 nM; FIG. 8. The method, then: as §5, with “2) Assay on anti-human CD79B mouse monoclonal antibodies by” for “3)”, “ELISA” for “ELISA screening”, “antibody diluted in a 1:10 ratio from 100 nM” for “the test cell supernatant”

Assay [7] deals with T2, CD79B protein on the surface of DoHH2 cells. The assay can be described thus: FACS of anti-human CD79B hybridoma positive clones. It counts as binding. As for the experimental part: 4) FACS screening The suspension of DoHH2 cells was centrifuged, resuspended in PBS containing 0.1% BSA, and counted. The test serum was added, and the cells were incubated at room temperature for 60 min and washed. Then Anti-Mouse IgG (Fc specific)-FITC secondary antibody was added, and the cells were incubated at room temperature for 30 min away from the light, washed three times, gently resuspended in PBS containing 0.1% BSA, and loaded on the machine for assay.
as §6

For the molecule `C=C1C[C@@H]2CC[C@@]34C[C@H]5O[C@H]6[C@@H](O3)[C@H]3O[C@H](CC[C@@H]3O[C@H]6[C@H]5O4)CC(=O)C[C@@H]3[C@@H](OC)[C@@H](C[C@H](O)CN)O[C@H]3C[C@H]3O[C@@H](CC[C@@H]1O2)C[C@@H](C)C3=C` [Eribulin, reference compound], the IC50 came to 0.661 nM in assay [1] (120 h, A549, 5 days, CTG, read-out: IC50); 0.715 nM in assay [2] (SKBR3, 5 days, CTG, read-out: IC50); 0.482 nM in assay [3] (120 h, MDA-MB-468, 5 days, CTG, read-out: IC50).
In the case of `C=C1C[C@@H]2CC[C@@]34C[C@H]5O[C@H]6[C@@H](O3)[C@H]3O[C@H](CC[C@@H]3O[C@H]6[C@H]5O4)CC(=O)C[C@@H]3[C@@H](OC)[C@@H](C[C@@H](CN)OC)O[C@H]3C[C@H]3O[C@@H](CC[C@@H]1O2)C[C@@H](C)C3=C` [D-1], the “Maximum inhibition (%)” value in assay [1] (A549, 5 days, CTG) worked out at 81.34%; in assay [2] (SKBR3, 5 days, CTG), 96.87%; in assay [3] (MDA-MB-468, 5 days, CTG) it was 88.01%. For the same molecule, the IC50 was determined as 0.515 nM in assay [1] (A549, 120 h); 0.205 nM in assay [2]; 0.183 nM in assay [3] (MDA-MB-468, 120 h). The “killing effect compared with eribulin” value in assay [2] (three tumor cell lines SKBR3, MDA-MB-468 and A549) was “good killing effect in three tumor cell lines and is significantly superior to the positive drug eribulin”.

B1: mAb016: anti-human CD79B mouse monoclonal antibody, hybridoma clone 83C2D4 (antibody, V domains shown)
VH: QVQLQQSGAELARPGASVKLSCKASGYIFTNYGIIWVKQRTGQGLEWIGDIFPGSGNTYYNENFKGKATLTADKSSSTAYMELRSLTSEDSAVYFCSRGELGDFDYWGQGTTLTVSS
VL: VVLMTQTPLSLPVSLGDQASISCRSSQNIVHSDGTTYLEWYLQKPGQSPKLLIYKVSNRFSGVPDRFSGSGSGTDFTLKISRVEAEDLGIYYCFQGSHVPWTFGGGTKLEIK
Turning to B1, in assay [4], the “Results (OD450)” value is on record as 3.46. For the same molecule, in assay [5], the FACS binding force entry is “strongest FACS binding force” and the “FACS binding force compared with SN8” value is on record as “superior binding force to SN8”. Moreover, the ELISA binding force entry in assay [6] is given as “strongest ELISA binding force”. The molecule further displayed a Mean fluorescence value in assay [7] of 9990.

B2: mAb017: anti-human CD79B mouse monoclonal antibody, clone 86F11F6; VH SEQ ID NO: 5, VL SEQ ID NO: 6 (antibody, listed as Mus musculus, V domains shown)
VH: QVQLQQSGAELARPGASVKLSCKASGYTFTTYGINWVKQRTGQGLEWIGEIYPRSGNIYYNEKFKGKATLTADKSSSTAYMELRSLTSEDSAVYFCARGSDYDGDFAYWGQGTLVTVSA
VL: DVLMTQTPLSLPVSLGDQASISCRSSQSIVHHDGNTYLEWYLQKPGQSPKLLIYKVSNRFSGVPDRFSGSGSGTDFTLKISRVEAEDLGVYYCFQGSHVPWTFGGGTQLEIK
B2: the “Results (OD450)” value in assay [4] was 3.80. In assay [5], the FACS binding force entry is “strongest FACS binding force” and the “FACS binding force compared with SN8” value was “superior binding force to SN8”. For the same molecule, in assay [6], the ELISA binding force entry is reported as “strongest ELISA binding force”. In assay [7], this molecule showed a Mean fluorescence value of 8132.

Usually IC50 stands for the concentration needed to halve the response being measured.
